Patent US11530218B2, “Spiro compounds as inhibitors of KRAS” (Incyte Corporation, priority 2020, dated 2022)

Columns and labels:
KRAS G12C = KRAS G12C (Homo sapiens, UniProt P01116, G12C); assay: KRAS G12C GDP-GTP exchange assay (bodipy-GDP/GppNHp, SOS1); type: biochemical; settings: bodipy-loaded KRAS G12C 2.5 nM, 2 hours pre-incubation with inhibitor, 2 hours exchange; read-out: G12C_exchange (KRAS_G12C exchange assay IC50)
Procedure: (§1) The inhibitor potency of the exemplified compounds was determined in a fluorescence based guanine nucleotide exchange assay, which measures the exchange of bodipy-GDP (fluorescently labeled GDP) for GppNHp (Non-hydrolyzable GTP analog) to generate the active state of KRAS in the presence of SOS1 (guanine nucleotide exchange factor). Inhibitors were serially diluted in DMSO and a volume of 0.1 μL was transferred to the wells of a black low volume 384-well plate. 5 μL/well volume of bodipy-loaded KRAS G12C diluted to 5 nM in assay buffer (25 mM Hepes pH 7.5, 50 mM NaCl, 10 mM MgCl2 and 0.01% Brij-35) was added to the plate and pre-incubated with inhibitor for 2 hours at ambient temperature. Appropriate controls (enzyme with no inhibitor or with a G12C inhibitor (AMG-510)) were included on the plate. The exchange was initiated by the addition of a 5 μL/well volume containing 1 mM GppNHp and 300 nM SOS1 in assay buffer. The 10 μL/well reaction concentration of the bodipy-loaded KRAS G12C, GppNHp, and SOS1 were 2.5 nM, 500 uM, and 150 nM, respectively. The reaction plates were incubated at ambient temperature for 2 hours, a time estimated for complete GDP-GTP exchange in the absence of inhibitor. For the KRAS G12D and G12V mutants, similar guanine nucleotide exchange assays were used with 2.5 nM as final concentration for the bodipy loaded KRAS proteins and with 4 hours and 3 hours incubation after adding GppNHp-SOS1 mixture for G12D and G12V respectively. A cyclic peptide described to selectively bind G12D mutant (Sakamoto et al., BBRC 484.3 (2017), 605-611) or internal compounds with confirmed binding were used as positive controls in the assay plates. Fluorescence intensities were measured on a PheraStar plate reader instrument (BMG Labtech) with excitation at 485 nm and emission at 520 nm.
(§2) Either GraphPad prism or XLfit was used to analyze the data. The IC50 values were derived by fitting the data to a four parameter logistic equation producing a sigmoidal dose-response curve with a variable Hill coefficient. Prism equation: Y=Bottom+(Top−Bottom)/(1+10^((Log IC50−X)*Hill slope)); XLfit equation: Y=(A+((B−A)/(1+((X/C)^D)))) where X is the logarithm of inhibitor concentration and Y is the response.

[1] = tested on: KRAS G12D (A427, HPAF-II cells); assay: KRAS_G12D cellular pERK HTRF assay; type: cell-based; settings: cells incubated with compound 2 hours; read-out: G12D_pERK (KRAS_G12D pERK assay IC50)
Procedure: (§3) MIA PaCa-2 (KRAS G12C; ATCC® CRL-1420), A427 (KRAS G12D; ATCC® HTB53), HPAF-II (KRAS G12D; ATCC® CRL-1997) and NCI-H838 (KRAS WT; ATCC® CRL-5844) cells are purchased from ATCC and maintained in RPMI 1640 media supplemented with 10% FBS (Gibco/Life Technologies). The cells are plated at 5000 cells per well (8 uL) into Greiner 384-well low volume, flat-bottom, tissue culture treated white plates and incubated overnight at 37° C., 5% CO2. The next morning, test compound stock solutions are diluted in media at 3x the final concentration, and 4 uL are added to the cells. The plate is mixed by gentle rotation for 30 seconds (250 rpm) at room temperature. The cells are incubated with the KRAS G12C and G12D compounds for 4 hours or 2 hours respectively at 37° C., 5% CO2.
(§4) 4 uL of 4× lysis buffer with blocking reagent (1:25) (Cisbio) are added to each well and plates are rotated gently (300 rpm) for 30 minutes at room temperature. 4 uL per well of Cisbio anti Phospho-ERK 1/2 d2 is mixed with anti Phospho-ERK 1/2 Cryptate (1:1) are added to each well, mixed by rotation and incubated overnight in the dark at room temperature. Plates are read on the Pherastar plate reader at 665 nm and 620 nm wavelengths. IC50 determination is performed by fitting the curve of inhibitor percent inhibition versus the log of the inhibitor concentration using the GraphPad Prism 7 software.

KRAS G12D = KRAS G12D (Homo sapiens, UniProt P01116, G12D); assay: KRAS G12D GDP-GTP exchange assay (bodipy-GDP/GppNHp, SOS1); type: biochemical; settings: bodipy loaded KRAS G12D 2.5 nM, 4 hours incubation after GppNHp-SOS1; read-out: G12D_exchange (KRAS_G12D exchange assay IC50)
KRAS G12D, sequence (P01116 1-188 isoform P01116-2 G12D): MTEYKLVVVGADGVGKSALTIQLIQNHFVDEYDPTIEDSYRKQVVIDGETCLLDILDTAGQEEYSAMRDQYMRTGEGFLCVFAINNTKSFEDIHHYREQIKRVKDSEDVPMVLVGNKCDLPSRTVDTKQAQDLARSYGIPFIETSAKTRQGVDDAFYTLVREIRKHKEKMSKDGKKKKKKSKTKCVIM
Procedure: as §1, §2

[2] = tested on: KRAS G12C (MIA PaCa-2 cells); assay: KRAS_G12C cellular pERK HTRF assay; type: cell-based, human; design: G12C_pERK (KRAS_G12C pERK assay IC50): scale not given here; settings: cells incubated with compound 4 hours; for IC50: Homo sapiens, MIA PaCa-2, read-out: G12C_pERK (KRAS_G12C pERK assay IC50)
Procedure: as §3, §4

KRAS G12C, sequence (P01116 1-188 isoform P01116-2 G12C): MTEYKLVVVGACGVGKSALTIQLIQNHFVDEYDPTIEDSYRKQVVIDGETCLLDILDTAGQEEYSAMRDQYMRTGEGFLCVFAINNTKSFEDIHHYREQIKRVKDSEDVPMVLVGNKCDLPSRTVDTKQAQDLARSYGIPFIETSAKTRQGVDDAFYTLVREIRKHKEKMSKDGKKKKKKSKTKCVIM

Structure (SMILES)	IC50 (KRAS G12C) [nM]	IC50 [2] [nM]	other results
C=CC(=O)N1CCCC2(C1)C(=O)Nc1c(OC[C@@H]3CCCN3C)nc3c(F)c(-c4cc(O)cc5ccccc45)c(Cl)cc3c12 (mixture of isomers) [Example 15, 1-Acryloyl-8′-chloro-6′-fluoro-7′-(3-hydroxynaphthalen-1-yl)-4′-(((S)-1-methylpyrrolidin-2-yl)methoxy)spiro[piperidine-3,1′-pyrrolo[2,3-c]quinolin]-2′(3′H)-one]	1000 to 5000	–	–
C=CC(=O)N1CCC2(C1)Nc1c(cnc3c(F)c(-c4c(C)ccc5[nH]ncc45)c(Cl)cc13)NC2=O (racemic) [Example 9, 1′-Acryloyl-9-chloro-7-fluoro-8-(5-methyl-1H-indazol-4-yl)-1,4-dihydro-3H-spiro[pyrazino[2,3-c]quinoline-2,3′-pyrrolidin]-3-one]	1000 to 5000	–	–
CC(C)CCN1C(=O)C2(CCCNC2)c2c1c(OC[C@@H]1CCCN1C)nc1c(F)c(-c3cc(O)cc4ccccc34)c(CCCC#N)cc21 (single isomer, unassigned) [Example 35a]	–	–	IC50 [1]: 5000 to 50000 nM; IC50 (KRAS G12D): ≤ 100 nM
C=CC(=O)N1CCC2(CC1)Nc1c(cnc3c(F)c(-c4cc(O)ccc4Cl)c(Cl)cc13)NC2=O [Example 2, 1-Acryloyl-9′-chloro-8′-(2-chloro-5-hydroxyphenyl)-7′-fluoro-1′,4′-dihydro-3′H-spiro[piperidine-4,2′-pyrazino[2,3-c]quinolin]-3′-one]	–	1000 to 5000	–
C=CC(=O)N1CCC2(CC1)Nc1c(cnc3c(F)c(-c4cccc5[nH]nc(C)c45)c(Cl)cc13)NC2=O [Example 3, 1-Acryloyl-9′-chloro-7′-fluoro-8′-(3-methyl-1H-indazol-4-yl)-1′,4′-dihydro-3′H-spiro[piperidine-4,2′-pyrazino[2,3-c]quinolin]-3′-one]	1000 to 5000	–	–
C=CC(=O)N1CCC2(CC1)Nc1c(cnc3c(F)c(-c4c(F)cccc4OC)c(Cl)cc13)NC2=O [Example 5, 1-Acryloyl-9′-chloro-7′-fluoro-8′-(2-fluoro-6-methoxyphenyl)-1′,4′-dihydro-3′H-spiro[piperidine-4,2′-pyrazino[2,3-c]quinolin]-3′-one]	1000 to 5000	–	–
C=CC(=O)N1CC2(C1)Nc1c(cnc3c(F)c(-c4c(O)cccc4F)c(Cl)cc13)NC2=O [Example 6, 1-Acryloyl-9′-chloro-7′-fluoro-8′-(2-fluoro-6-hydroxyphenyl)-1′,4′-dihydro-3′H-spiro[azetidine-3,2′-pyrazino[2,3-c]quinolin]-3′-one]	–	1000 to 5000	–
C=CC(=O)N1CC2(C1)Nc1c(cnc3c(F)c(-c4c(C)ccc5[nH]ncc45)c(Cl)cc13)NC2=O [Example 7, 1-Acryloyl-9′-chloro-7′-fluoro-8′-(5-methyl-1H-indazol-4-yl)-1′,4′-dihydro-3′H-spiro[azetidine-3,2′-pyrazino[2,3-c]quinolin]-3′-one]	–	1000 to 5000	–
C=CC(=O)N1CCC2(C1)Nc1c(cnc3c(F)c(-c4c(O)cccc4F)c(Cl)cc13)NC2=O (centres unmarked) [Example 8, 1′-Acryloyl-9-chloro-7-fluoro-8-(2-fluoro-6-hydroxyphenyl)-1,4-dihydro-3H-spiro[pyrazino[2,3-c]quinoline-2,3′-pyrrolidin]-3-one]	–	1000 to 5000	–
C=CC(=O)N1CCC2(CC1)Nc1c(c(OC[C@@H]3CCCN3C)nc3c(F)c(-c4c(O)cccc4F)c(Cl)cc13)NC2=O [Example 10, 1-Acryloyl-9′-chloro-7′-fluoro-8′-(2-fluoro-6-hydroxyphenyl)-5′-(((S)-1-methylpyrrolidin-2-yl)methoxy)-1′,4′-dihydro-3′H-spiro[piperidine-4,2′-pyrazino[2,3-c]quinolin]-3′-one]	≤ 100	1000 to 5000	–
C=CC(=O)N1CCC2(CC1)Nc1c(c(OC[C@@H]3CCCN3C)nc3c(F)c(-c4cc(O)cc5ccccc45)c(Cl)cc13)NC2=O [Example 11, 1-Acryloyl-9′-chloro-7′-fluoro-8′-(3-hydroxynaphthalen-1-yl)-5′-(((S)-1-methylpyrrolidin-2-yl)methoxy)-1′,4′-dihydro-3′H-spiro[piperidine-4,2′-pyrazino[2,3-c]quinolin]-3′-one]	≤ 100	–	G12C_pERK (KRAS_G12C pERK assay IC50) [2]: ††
C=CC(=O)N1CCC2(CC1)Nc1c(c(OCCN3CCCCC3)nc3c(F)c(-c4c(O)cccc4F)c(Cl)cc13)NC2=O [Example 12, 1-Acryloyl-9′-chloro-7′-fluoro-8′-(2-fluoro-6-hydroxyphenyl)-5′-(2-(piperidin-1-yl)ethoxy)-1′,4′-dihydro-3′H-spiro[piperidine-4,2′-pyrazino[2,3-c]quinolin]-3′-one]	–	1000 to 5000	–
C=CC(=O)N1CCC2(CC1)C(=O)Nc1c(OC[C@@H]3CCCN3C)nc3c(F)c(-c4cc(O)cc5ccccc45)c(Cl)cc3c12 [Example 13, 1-Acryloyl-8′-chloro-6′-fluoro-7′-(3-hydroxynaphthalen-1-yl)-4′-(((S)-1-methylpyrrolidin-2-yl)methoxy)spiro[piperidine-4,1′-pyrrolo[2,3-c]quinolin]-2′(3′H)-one]	≤ 100	–	G12C_pERK (KRAS_G12C pERK assay IC50) [2]: ††
C=CC(=O)N1CCC2(C1)C(=O)Nc1c(OC[C@@H]3CCCN3C)nc3c(F)c(-c4cc(O)cc5ccccc45)c(Cl)cc3c12 (stereo partly drawn) [Example 14, 1-Acryloyl-8′-chloro-6′-fluoro-7′-(3-hydroxynaphthalen-1-yl)-4′-(((S)-1-methylpyrrolidin-2-yl)methoxy)spiro[pyrrolidine-3,1′-pyrrolo[2,3-c]quinolin]-2′(3′H)-one]	–	–	G12C_pERK (KRAS_G12C pERK assay IC50) [2]: ††
C=CC(=O)N1CCC2(CC1)CC(=O)c1cnc3c(F)c(-c4cc(O)cc5ccccc45)c(Cl)cc3c1O2 [Example 17, 1-Acryloyl-9′-chloro-7′-fluoro-8′-(3-hydroxynaphthalen-1-yl)spiro[piperidine-4,2′-pyrano[3,2-c]quinolin]-4′(3′H)-one]	1000 to 5000	–	–
C=CC(=O)N1CC2(C1)Nc1c(c(OC[C@@H]3CCCN3C)nc3c(F)c(-c4c(O)cccc4F)c(Cl)cc13)NC2=O [Example 18, 1-Acryloyl-9′-chloro-7′-fluoro-8′-(2-fluoro-6-hydroxyphenyl)-5′-(((S)-1-methylpyrrolidin-2-yl)methoxy)-1′,4′-dihydro-3′H-spiro[azetidine-3,2′-pyrazino[2,3-c]quinolin]-3′-one]	–	1000 to 5000	–
